# Assay results taken from patent US10537575B2, “Phosphodiesterase inhibitors to repair brain and/or retinal injury in human newborns” (priority 2016, dated 2020).
# How the values were obtained:
# Assay type in all cases: in vivo
# [1] = system: Long-Evans rat pups (term neonatal HIE model); test: Endothelial cells count (lectin staining) at P30; details: HI, not significant
# Procedure: Using the third slide prepared for each animal, an immunohistochemistry was used to assess the endothelial cells count. Sections were labeled with lectin (biotinylated isolectin B4) (Sigma-Aldrich: L2140, St-Louis, Mo., USA) (dilution 20 μg/mL in 0.1M tris-buffered saline [pH 7.4] and 0.5% Triton X-100, incubation time 2 hours at room temperature) (Springer M L et al., 2010). To detect lectin binding, the sections were incubated with streptavidin Alexa Fluor® 350 conjugate (Molecular Probes®, Life Technologies: S11249, Carlsbad, Calif., USA) dilution 1:300 in tris-buffered saline, incubation time 2 hours at room temperature (Ndode-Ekane X E et al., 2010). Then, these sections were rinsed with tris-buffered saline and cover slipped with Vectashield Mounting media containing 4,6-diamidino-2-phenylindole (DAPI) (Vector Laboratories: H1200, Burlingame, Calif., USA) to visualize cell nuclei (Ndode-Ekane X E et al., 2010; Hallene K L et al., 2006). The endothelial cells count was assessed as per previously described methods (Hallene K L et al., 2006, Iwai M et al., 2007; Noguchi T et al., 2008; Rigau V et al., 2007; Wintermark P et al., 2013). Cells co-labeled with lectin and DAPI were identified as endothelial cells (Springer M L et al., 2010; Hallene K L et al., 2006). To estimate the density of microvessels, single immunoreactive endothelial cells were counted as individual microvessels; endothelial staining in large vessels with tunica media were disregarded in the microvessel counts (Hallene K L et al., 2006, Iwai M et al., 2007; Noguchi T et al., 2008; Rigau V et al., 2007; Wintermark P et al., 2013; Shaikh H et al., 2015). […] One investigator took pictures of the respective fields of view at 10× magnification.
# [2] = system: Long-Evans rat pups (neonatal HI); test: Cerebellum injury after neonatal HI; details: P30
# Procedure: Neonatal HI was induced in male Long-Evans rat pups at postnatal day 10 (P10) by left common carotid ligation followed by a 2-hour exposure to 8% oxygen; sham operated rat pups served as the control. […] At P30, the rats were sacrificed, and the cerebellum was extracted. The internal granular layers and molecular layers of the cerebellum were measured across all groups on cresyl violet-stained cerebellum sections. Astrocytes expressing Vascular Endothelial Growth Factor (VEGF) in the internal granular layers and molecular layers were quantified using immunohistochemistry.
# [3] = system: Long-Evans rat pups (term neonatal HIE model); test: Neurons count (NeuN) in cortex at P30; details: HI; for neuronal number near the infarct boundary zone, median (IQR): ipsilateral cortex
# Procedure: Using the second slide prepared for each animal, an immunohistochemistry was performed to examine the number of mature neurons. Neurons were labeled with an anti-neuronal nuclei (NeuN) antibody (Millipore: MAB377, Billerica, Mass., USA) (dilution 1:500, incubation time 1 hour at room temperature) (Hendrickson M L et al., 2011). Sections then were incubated with the secondary antibody Alexa Fluor® 488 goat anti-rabbit IgG (Molecular Probes®, Life Technologies: A11034, Carlsbad, Calif., USA) (dilution 1:1000, incubation time 2 hours at 4° C.). These sections were rinsed with tris-buffered saline and cover slipped with Vectashield Mounting media containing 4,6-diamidino-2-phenylindole (DAPI) (Vector Laboratories: H1200, Burlingame, Calif., USA) to visualize cell nuclei. Cells co-labeled with NeuN and DAPI were identified as neurons. […] One investigator took pictures of the respective fields of view at 10× magnification.
# [4] = system: Long-Evans rat pups (neonatal HI); test: White matter myelination, oligodendrocytes and neuroinflammation after neonatal HI; details: P30
# Procedure: Neonatal HI was induced in male Long-Evans rat pups at postnatal day 10 (P10) by left common carotid ligation followed by 2-hour exposure to 8% oxygen. Sham operated rat pups served as control. […] At P30, rats were sacrificed and their brains extracted. Hematoxylin and eosin staining was performed to analyze the structure of the myelin sheath. Olig2 and CC-1 immunostaining were performed to assess the proportion of mature oligodendrocyte to total oligodendrocytes. GFAP, Iba1, and Mac2 immunostaining was used to label reactive astrocytes and activated microglia. Collagen IV was used to investigate microvessels. Corpus callosum and left external capsule were the 2 regions where these markers were assessed to evaluate “white matter”.
compound,measurement,setting,value
CCCc1nn(C)c2c(=O)[nH]c(-c3cc(S(=O)(=O)N4CCN(C)CC4)ccc3OCC)nc12 [sildenafil],"endothelial cells number, median (IQR)",[1]; sildenafil 2 mg/kg,230 (158; 273) endothelial cells/mm^2
same,"endothelial cells number, median (IQR)","[1]; sildenafil 10 mg/kg (first mention, medium-dose)",196 (157; 225) endothelial cells/mm^2
same,"endothelial cells number, median (IQR)","[1]; sildenafil 10 mg/kg as printed (second mention, third of low/medium/high)",193 (151; 217) endothelial cells/mm^2
same,thickness of internal granular layers and molecular layers of the cerebellum,"[2]; oral sildenafil 2, 10 or 50 mg/kg twice daily 7 days",improvement in the overall thickness of these layers
same,VEGF expressing astrocytes in cerebellum,[2]; oral sildenafil,reduction of VEGF expressing astrocytes
same,"neuronal number near the infarct boundary zone, median (IQR)","[3]; high-dose sildenafil, p<0.001",1368 (1292; 1444) neurons/mm^2
same,"neuronal number in corresponding region of contralateral cortex, median (IQR)","[3]; high-dose sildenafil, p<0.001",1019 (948; 1106) neurons/mm^2
same,"neuronal number in corresponding region of contralateral cortex, median (IQR)","[3]; low-dose sildenafil, not significant",808 (586; 963) neurons/mm^2
same,"neuronal number in corresponding region of contralateral cortex, median (IQR)","[3]; medium-dose sildenafil, p<0.001",999 (930; 1107) neurons/mm^2
same,"neuronal number near the infarct boundary zone, median (IQR)","[3]; sildenafil 2 mg/kg, p<0.01",1118 (1069; 1238) neurons/mm^2
same,"neuronal number near the infarct boundary zone, median (IQR)","[3]; sildenafil 10 mg/kg, p<0.001",1222 (1170; 1338) neurons/mm^2
same,myelin sheath thickness in corpus callosum and left external capsule,"[4]; HI, all dosage",reverted the myelin sheath thickness back to levels comparable to sham vehicle rat animals
same,microvessel density in the white matter,[4],no changes
same,number of total and mature oligodendrocytes in the left external capsule,[4]; after sildenafil,no changes
same,reactive astrocytosis and microgliosis in the corpus callosum and left external capsule,[4]; higher doses of sildenafil,significant reduction
same,number of mature oligodendrocytes in the corpus callosum,[4]; sildenafil 50 mg/kg,significantly increased
same,number of total oligodendrocytes in the corpus callosum,[4]; sildenafil 50 mg/kg,significantly increased
